Here are results for 21 molecules from US11236087B2, “Highly active pyrazolo-piperidine substituted indole-2-carboxamides active against the hepatitis B virus (HBV)” (AiCuris GmbH & Co. KG, priority 2017, dated 2022).

pEC50: −log10 of the molar value.

The test system of data set [1] is HBV. The data set can be described thus: Determination of HBV DNA from the supernatants of HepAD38 cells (anti-HBV activity). The data set is classed as cell-based, hepatitis B virus. The conditions noted are these: Hepatitis B virus, 144 h; HBV DNA in HepAD38 supernatant, day 6, qPCR; read-out: Cell Activity (EC50). On the procedure: Determination of HBV DNA from the Supernatants of HepAD38 Cells
The anti-HBV activity was analysed in the stable transfected cell line HepAD38, which has been described to secrete high levels of HBV virion particles (Ladner et al., 1997). In brief, HepAD38 cells were cultured at 37° C. at 5% CO2 and 95% humidity in 200 μl maintenance medium, which was Dulbecco's modified Eagle's medium/Nutrient Mixture F-12 (Gibco, Karlsruhe), 10% fetal bovine serum (PAN Biotech Aidenbach) supplemented with 50 μg/ml penicillin/streptomycin (Gibco, Karlsruhe), 2 mM L-glutamine (PAN Biotech, Aidenbach), 400 μg/ml G418 (AppliChem, Darmstadt) and 0.3 μg/ml tetracycline. Cells were subcultured once a week in a 1:5 ratio, but were usually not passaged more than ten times. For the assay 60,000 cells were seeded in maintenance medium without any tetracycline into each well of a 96-well plate and treated with serial half-log dilutions of test compound. To minimize edge effects the outer 36 wells of the plate were not used but were filled with assay medium. On each assay plate six wells for the virus control (untreated HepAD38 cells) and six wells for the cell control (HepAD38 cells treated with 0.3 μg/ml tetracycline) were allocated, respectively. In addition, one plate set with reference inhibitors like BAY 41-4109, entecavir, and lamivudine instead of screening compounds were prepared in each experiment. In general, experiments were performed thrice in triplicates. At day 6 HBV DNA from 100 μl filtrated cell culture supernatant (AcroPrep Advance 96 Filter Plate, […] Supor membran, PALL GmbH, Dreieich) was automatically purified on the MagNa Pure LC instrument using the MagNA Pure 96 DNA and Viral NA Small Volume Kit (Roche Diagnostics, Mannheim) according to the instructions of the manufacturer. EC50 values were calculated from relative copy numbers of HBV DNA In brief, 5 μl of the 100 μl eluate containing HBV DNA were subjected to PCR LC480 Probes Master Kit (Roche) together with 1 μM antisense primer […], 0.5 μM sense primer […], 0.3 μM hybprobes […]-FL and LC640-[…]-PH (TIBMoBiol, Berlin) to a final volume of 12.5 μl. The PCR was performed on the Light Cycler 480 real time system (Roche Diagnostics, Mannheim) using the following protocol: Pre-incubation for 1 min at 95° C., amplification: 40 cycles×(10 sec at 95° C., 50 sec at 60° C., 1 sec at 70° C.), cooling for 10 sec at 40° C. Viral load was quantitated against known standards using HBV plasmid DNA of pCH-9/3091 (Nassal et al., 1990, Cell 63: 1357-1363) and the LightCycler 480 SW 1.5 software (Roche Diagnostics, Mannheim) and EC50 values were calculated using non-linear regression with GraphPad Prism 6 (GraphPad Software Inc., La Jolla, USA).
For orientation: Quantitative PCR measures a nucleic acid by following its amplification.

The nature of data set [2]: Cell viability assay (AlamarBlue) in HepAD38 cells. The settings on record: human. (Alamar Blue is a resazurin reagent that responds to reducing activity.)

With `O=C(c1cc2c(F)c(F)c(F)cc2[nH]1)N1CCc2n[nH]c(-c3cscn3)c2C1` [Example 11, 4,5,6-trifluoro-2-[3-(1,3-thiazol-4-yl)-2H,4H,5H,6H,7H-pyrazolo[4,3-c]pyridine-5-carbonyl]-1H-indole], in data set [1], the pEC50 (usually −log10 of the EC50, conventionally taken in molar units) is greater than 6.00. The CC50 (in general, the concentration giving 50% cytotoxicity) at 6 days in data set [2] is greater than 10 µM.
Regarding `O=C(c1cc2c(Cl)c(F)ccc2[nH]1)N1CCc2n[nH]c(-c3cscn3)c2C1` [Example 13, 4-chloro-5-fluoro-2-[3-(1,3-thiazol-4-yl)-2H,4H,5H,6H,7H-pyrazolo[4,3-c]pyridine-5-carbonyl]-1H-indole], the pEC50 in data set [1] was greater than 6.00. In addition, in data set [2], the CC50 at 6 days is greater than 10 µM.
For `O=C(c1cc2cc(F)c(F)cc2[nH]1)N1CCc2n[nH]c(-c3cscn3)c2C1` [Example 14, 5,6-difluoro-2-[3-(1,3-thiazol-4-yl)-2H,4H,5H,6H,7H-pyrazolo[4,3-c]pyridine-5-carbonyl]-1H-indole], the pEC50 in data set [1] is greater than 6.00. Further, the CC50 at 6 days in data set [2] was greater than 10 µM.
On the same counts, the results for `CCc1c(F)ccc2[nH]c(C(=O)N3CCc4n[nH]c(-c5cscn5)c4C3)cc12` [Example 25, 4-ethyl-5-fluoro-2-[3-(1,3-thiazol-4-yl)-2H,4H,5H,6H,7H-pyrazolo[4,3-c]pyridine-5-carbonyl]-1H-indole] are 4.60 to 6.00 and greater than 10 µM.
The like results for `CC1c2c(-c3cscn3)n[nH]c2CCN1C(=O)c1cc2c(Cl)cc(F)cc2[nH]1` (stereo not drawn) [Example 35, 4-chloro-6-fluoro-2-[4-methyl-3-(1,3-thiazol-4-yl)-1H,4H,5H,6H,7H-pyrazolo[4,3-c]pyridine-5-carbonyl]-1H-indole] were, in that order, greater than 6.00 and greater than 32 µM.
For `O=C(NC1CCCCC1)c1n[nH]c2c1CN(C(=O)c1cc3ccccc3[nH]1)CC2` [Example 87, N-cyclohexyl-5-(1H-indole-2-carbonyl)-1H,4H,5H,6H,7H-pyrazolo[4,3-c]pyridine-3-carboxamide], the pEC50 in data set [1] is 4.60 to 6.00. Besides, the CC50 at 6 days in data set [2] was greater than 100 µM.
Take `C[C@@H]1CCC[C@@H](C)N1C(=O)c1n[nH]c2c1CN(C(=O)c1cc3ccccc3[nH]1)CC2` [Example 146, 2-{3-[(2R,6R)-2,6-dimethylpiperidine-1-carbonyl]-1H,4H,5H,6H,7H-pyrazolo[4,3-c]pyridine-5-carbonyl}-1H-indole]: in data set [1], the pEC50 was 4.60 to 6.00. The same molecule gave a CC50 at 6 days in data set [2] greater than 10 µM.
The like results for `O=C(c1cc2ccccc2[nH]1)N1CCc2[nH]nc(C(=O)N3CCCC34CCC4)c2C1` [Example 151, 2-(3-{5-azaspiro[3.4]octane-5-carbonyl}-1H,4H,5H,6H,7H-pyrazolo[4,3-c]pyridine-5-carbonyl)-1H-indole] were, in that order, 4.60 to 6.00 and greater than 10 µM.
In the case of `Cn1ncc2c1CN(C(=O)c1n[nH]c3c1CN(C(=O)c1cc4ccccc4[nH]1)CC3)C2` [Example 168, 2-(3-{1-methyl-1H,4H,5H,6H-pyrrolo[3,4-c]pyrazole-5-carbonyl}-1H,4H,5H,6H,7H-pyrazolo[4,3-c]pyridine-5-carbonyl)-1H-indole], the pEC50 in data set [1] is 4.60 to 6.00. The same molecule came in with a CC50 at 6 days in data set [2] greater than 10 µM.
`O=C(c1cc2ccccc2[nH]1)N1CCc2[nH]nc(C(=O)N3CCC4(CCO4)C3)c2C1` (stereo not drawn) [Example 182, 2-(3-{1-oxa-6-azaspiro[3.4]octane-6-carbonyl}-1H,4H,5H,6H,7H-pyrazolo[4,3-c]pyridine-5-carbonyl)-1H-indole]: the pEC50 in data set [1] was 4.60 to 6.00. This molecule returned a 50% cytotoxic concentration (CC50) at 6 days in data set [2] greater than 10 µM.
With `O=C(c1cc2ccccc2[nH]1)N1CCc2[nH]nc(C(=O)N3CCC4(COC4)C3)c2C1` [Example 183, 2-(3-{2-oxa-6-azaspiro[3.4]octane-6-carbonyl}-1H,4H,5H,6H,7H-pyrazolo[4,3-c]pyridine-5-carbonyl)-1H-indole], the pEC50 in data set [1] is 4.60 to 6.00. The same molecule yielded a CC50 at 6 days in data set [2] greater than 10 µM.
The like results for `O=C(c1cc2ccccc2[nH]1)N1CCc2[nH]nc(C(=O)N3CCC(F)(F)C3)c2C1` [Example 186, 2-[3-(3,3-difluoropyrrolidine-1-carbonyl)-1H,4H,5H,6H,7H-pyrazolo[4,3-c]pyridine-5-carbonyl]-1H-indole] were, in that order, greater than 6.00 and greater than 10 µM.
For the molecule `O=C(c1cc2ccccc2[nH]1)N1CCc2[nH]nc(C(=O)N3CCCC(F)(F)C3)c2C1` [Example 187, 2-[3-(3,3-difluoropiperidine-1-carbonyl)-1H,4H,5H,6H,7H-pyrazolo[4,3-c]pyridine-5-carbonyl]-1H-indole], in data set [1], the pEC50 is greater than 6.00. Further, the cytotoxic concentration (CC50) at 6 days in data set [2] is greater than 10 µM.
On the same counts, the results for `CN(C(=O)c1n[nH]c2c1CN(C(=O)c1cc3ccccc3[nH]1)CC2)[C@@H]1CCCC[C@@H]1O` [Example 200, N-[(1R,2S)-2-hydroxycyclohexyl]-5-(1H-indole-2-carbonyl)-N-methyl-1H,4H,5H,6H,7H-pyrazolo[4,3-c]pyridine-3-carboxamide] are 4.60 to 6.00 and greater than 10 µM.
The like results for `O=C(c1cc2ccccc2[nH]1)N1CCc2[nH]nc(S(=O)(=O)N3CC(F)(F)C3)c2C1` [Example 209, 2-{3-[(3,3-difluoroazetidin-1-yl)sulfonyl]-1H,4H,5H,6H,7H-pyrazolo[4,3-c]pyridine-5-carbonyl}-1H-indole] were, in that order, greater than 6.00 and greater than 10 µM.
With `O=C(c1cc2ccccc2[nH]1)N1CCc2[nH]nc(S(=O)(=O)N3CCCC3)c2C1` [Example 210, 2-[3-(pyrrolidine-1-sulfonyl)-1H,4H,5H,6H,7H-pyrazolo[4,3-c]pyridine-5-carbonyl]-1H-indole], the pEC50 in data set [1] is greater than 6.00. The CC50 at 6 days in data set [2] is greater than 10 µM.
On the same counts, the results for `COCCN(C)S(=O)(=O)c1n[nH]c2c1CN(C(=O)c1cc3ccccc3[nH]1)CC2` [Example 212, 5-(1H-indole-2-carbonyl)-N-(2-methoxyethyl)-N-methyl-1H,4H,5H,6H,7H-pyrazolo[4,3-c]pyridine-3-sulfonamide] are 4.60 to 6.00 and greater than 10 µM.
On to `CCc1cc(F)cc2[nH]c(C(=O)N3CCc4[nH]nc(C(=O)N5CCCC56CC6)c4C3)cc12` [Example 214, 2-(3-{4-azaspiro[2.4]heptane-4-carbonyl}-1H,4H,5H,6H,7H-pyrazolo[4,3-c]pyridine-5-carbonyl)-4-ethyl-6-fluoro-1H-indole], for which, in data set [1], the pEC50 is greater than 6.00. Moreover, in data set [2], the CC50 at 6 days is greater than 10 µM.
In the case of `O=C(c1cc2c(Cl)cc(F)cc2[nH]1)N1CCc2[nH]nc(C(=O)N3CCCC34CC4)c2C1` [Example 215, 2-(3-{4-azaspiro[2.4]heptane-4-carbonyl}-1H,4H,5H,6H,7H-pyrazolo[4,3-c]pyridine-5-carbonyl)-4-chloro-6-fluoro-1H-indole], the pEC50 in data set [1] was greater than 6.00. For the same molecule, in data set [2], the CC50 at 6 days was greater than 10 µM.
On the same counts, the results for `O=C(c1cc2c(Cl)cccc2[nH]1)N1CCc2[nH]nc(C(=O)N3CCCC34CC4)c2C1` [Example 216, 2-(3-{4-azaspiro[2.4]heptane-4-carbonyl}-1H,4H,5H,6H,7H-pyrazolo[4,3-c]pyridine-5-carbonyl)-4-chloro-1H-indole] are greater than 6.00 and greater than 10 µM.
On the same counts, the results for `O=C(c1cc2c(Cl)c(F)ccc2[nH]1)N1CCc2[nH]nc(C(=O)N3CCC(F)(F)C3)c2C1` [Example 217, 4-chloro-2-[3-(3,3-difluoropyrrolidine-1-carbonyl)-1H,4H,5H,6H,7H-pyrazolo[4,3-c]pyridine-5-carbonyl]-5-fluoro-1H-indole] are greater than 6.00 and greater than 10 µM.
